Experimental findings from ChEMBL document CHEMBL1122755, “Synthesis and murine antineoplastic activity of bis[(carbamoyloxy)methyl] derivatives of pyrrolo[2,1-a]isoquinoline” (1984) are described below.

In test [1] the test system is Mus musculus. Description: Change in weight of P388 lymphocytic leukemia infected mice was determined when the compound was administered at dose of 50 mg/kg. The class given is functional.
The test system of test [2] is Mus musculus. The experiment in a line: Change in weight of P388 lymphocytic leukemia infected mice was determined when the compound was administered at dose of 200 mg/kg. The class given is functional.
Test [3] has as its system Mus musculus. Description: Change in weight of P388 lymphocytic leukemia infected mice was determined when the compound was administered at dose of 100 mg/kg. The format is functional.
The subject of test [4] is Mus musculus. Description: % T/C value was measured against Murine P388 Lymphocytic Leukemia cells in CDF1 mice at the dose 100 mg/kg. The class given is functional.
Test [5] has as its system Mus musculus. The experiment in a line: % T/C value was measured against Murine P388 Lymphocytic Leukemia cells in CDF1 mice at the dose 50 mg/kg. The class given is functional.
Test [6] concerns Mus musculus. Description: % T/C value was measured against Murine P388 Lymphocytic Leukemia cells in CDF1 mice at the dose 200 mg/kg. The format is functional.
Test [7] relates to Mus musculus. The experiment in a line: % T/C value was measured against Murine P388 Lymphocytic Leukemia cells in CDF1 mice at the dose 3.13 mg/kg. The class given is functional.
Test [8] relates to Mus musculus. The experiment in a line: % T/C value was measured against Murine P388 Lymphocytic Leukemia cells in CDF1 mice at the dose 50 mg/kg; toxic. On the set-up: dose 50 mg/kg. The class given is functional, organism-based.
Test [9] has as its system Mus musculus. Description: Change in weight of P388 lymphocytic leukemia infected mice was determined when the compound was administered at dose of 6.25 mg/kg. The class given is functional.
The test system of test [10] is Mus musculus. Description: % T/C value was measured against Murine P388 Lymphocytic Leukemia cells in CDF1 mice at the dose 200 mg/kg; toxic. The format is functional, organism-based. On the set-up: dose 200 mg/kg.
The test system of test [11] is Mus musculus. The experiment in a line: % T/C value was measured against Murine P388 Lymphocytic Leukemia cells in CDF1 mice at the dose 12.5 mg/kg. The format is functional.
Test [12] relates to Mus musculus. Description: % T/C value was measured against Murine P388 Lymphocytic Leukemia cells in CDF1 mice at the dose 25 mg/kg; toxic. On the set-up: dose 25 mg/kg. The format is functional, organism-based.
The test system of test [13] is Mus musculus. The experiment in a line: % T/C value was measured against Murine P388 Lymphocytic Leukemia cells in CDF1 mice at the dose 6.25 mg/kg. The class given is functional.
The test system of test [14] is Mus musculus. The experiment in a line: Change in weight of P388 lymphocytic leukemia infected mice was determined when the compound was administered at dose of 12.5 mg/kg. The class given is functional.
Test [15] deals with Mus musculus. Description: % T/C value was measured against Murine P388 Lymphocytic Leukemia cells in CDF1 mice at the dose 100 mg/kg; toxic. The class given is functional, organism-based. On the set-up: dose 100 mg/kg.
Test [16] has as its system Mus musculus. The experiment in a line: Change in weight of P388 lymphocytic leukemia infected mice was determined when the compound was administered at dose of 3.13 mg/kg. The format is functional.
In test [17] the test system is Mus musculus. The experiment in a line: % T/C value was measured against Murine P388 Lymphocytic Leukemia cells in CDF1 mice at the dose 25 mg/kg. The class given is functional.
Test [18] deals with Mus musculus. Description: Change in weight of P388 lymphocytic leukemia infected mice was determined when the compound was administered at dose of 25 mg/kg. The class given is functional.
The subject of test [19] is Homo sapiens. Description: Optimum % T/C value was measured against Human CX-1 colon Xenograft at the dose of 300-600mg/kg, schedule was Q01DX04 (four doses), day 1(first dose was given, tumor was implanted on day zero); IA means inactive. The format is functional, organism-based. Background: A xenograft is tissue or cells of one species grown in another, often human tumour cells in immunodeficient mice.

Test [20] concerns Mus musculus. Description: Optimum % T/C value was measured against Murine L1210 lymphoid leukemia cells at the dose of 25 mg/kg, schedule was Q01DX09 (nine doses), day 1(first dose was given, tumor was implanted on day zero). The class given is functional.
For test [21], the system named is Mus musculus. Description: Optimum % T/C value was measured against Murine B16 melanocarcinoma cells at the dose of 12.5 mg/kg, schedule was Q01DX09, day 1. The format is functional.
For test [22], the system named is Mus musculus. The experiment in a line: Optimum % T/C value was measured against Murine CD8F1 mammary cells at the dose of 250 mg/kg (subcutaneous), schedule was Q01DX01 (one dose), day 21(21 dose was given, tumor was implanted on day zero). The format is functional.
The subject of test [23] is Homo sapiens. The experiment in a line: Optimum % T/C value was measured against Human MX-1 breast Xenograft at the dose of 600 mg/kg (s.c.), schedule was Q01DX03 (three doses), day 1(first dose was given, tumor was implanted on day zero). The class given is functional.
For test [24], the system named is Homo sapiens. Description: Optimum % T/C value was measured against Human LX-1 lung Xenograft at the dose of 150 mg/kg, schedule was Q01DX03, day 1. The format is functional.
The subject of test [25] is Mus musculus. Description: Optimum % T/C value was measured against Murine colon 38 cells at the dose of 100 mg/kg (subcutaneous), schedule was Q01DX02 (two doses), day 2(second dose was given, tumor was implanted on day zero). The format is functional, MC-38.
The subject of test [26] is Mus musculus. Description: Optimum % T/C value was measured against Murine Lewis lung carcinoma cells at the dose of 3.12-50mg/kg, schedule was Q01DX09 (nine doses), day 1(first dose was given, tumor was implanted on day zero); inactive. The format is functional, organism-based.

Calls of active or inactive are those of the source. No cut-off for these calls is given here.

Consider `CNC(=O)OCc1c(COC(=O)NC)c(-c2ccccc2)n2c1CCC2`, for which the Weight change in the test on Mus musculus [1] is listed as -2.1 g; in the test on Mus musculus [2], -3.5 g; with Mus musculus [3], -1.8 g. For the same compound, the T/C in the test with Mus musculus [4] was 124%; in the test with Mus musculus [5], 124%; in the test with Mus musculus [6], 60%.
Take `CCNC(=O)OCc1cn2c(c1COC(=O)NCC)-c1ccccc1CC2C` (stereo not drawn): the T/C was 142% with Mus musculus [7]; “Toxic” in the test on Mus musculus [8]; “Toxic” in the test on Mus musculus [10]; 185% in the test on Mus musculus [11]; “Toxic” with Mus musculus [12]; 141% in the test with Mus musculus [13]. The T/C entry with Mus musculus [15] is “Toxic”. Besides, the Weight change in the test on Mus musculus [9] is on record as -1.2 g; in the test with Mus musculus [14], -6 g; with Mus musculus [16] it was -1.3 g.
As to `CNC(=O)OCc1c(COC(=O)NC)c(-c2ccccc2)n(C)c1C`, the T/C in the test with Mus musculus [17] was 145%; in the test with Mus musculus [11] it was 130%; in the test on Mus musculus [13], 135%; in the test on Mus musculus [15] it was “Toxic”; in the test on Mus musculus [5], 90%. Further, the Weight change in the test on Mus musculus [9] is reported as -2.5 g; with Mus musculus [1] it was -4.6 g; in the test with Mus musculus [14], -3.3 g; with Mus musculus [18], -3.9 g.
With `CNC(=O)OCc1c(COC(=O)NC)c(-c2ccc(OC)cc2)n2c1CCC2`, the T/C in the test on Mus musculus [17] is 132%; with Mus musculus [10] it was “Toxic”; in the test on Mus musculus [11] it was 132%; in the test on Mus musculus [4], 125%; with Mus musculus [5] it was 131%. In addition, the Weight change in the test with Mus musculus [1] is -4 g; with Mus musculus [14] it was -3.2 g; in the test on Mus musculus [3], -4 g; in the test with Mus musculus [18], -3.3 g.
As for `COc1ccc2c(c1)CCn1c(C)c(COC(=O)NC(=O)NC3CCCCC3)c(COC(=O)NC(=O)NC3CCCCC3)c1-2`, the T/C with Mus musculus [17] is 137%; in the test with Mus musculus [10] it was “Toxic”; in the test on Mus musculus [11], 134%; in the test on Mus musculus [13], 137%; in the test on Mus musculus [4] it was 92%; with Mus musculus [5], 151%. The Weight change is given as -3.3 g with Mus musculus [9]; -6.5 g in the test with Mus musculus [1]; -4.4 g with Mus musculus [14]; -6 g in the test with Mus musculus [3]; -6.7 g in the test on Mus musculus [18].
With `CNC(=O)OCc1c(COC(=O)NC)c(-c2ccc(OC)cc2)n(C)c1C`, the T/C is 145% in the test with Mus musculus [17]; 138% in the test with Mus musculus [11]; 135% in the test with Mus musculus [13]; “Toxic” in the test with Mus musculus [15]; 152% in the test on Mus musculus [5]. Moreover, the Weight change in the test on Mus musculus [9] is given as -2.4 g; in the test on Mus musculus [1], -4.4 g; with Mus musculus [14], -3.2 g; in the test on Mus musculus [18], -3.4 g.
Regarding `COc1ccc2c(c1)CCn1c(C)c(COC(=O)NC(C)C)c(COC(=O)NC(C)C)c1-2`, the T/C result in the test with Homo sapiens [19] and in the test on Mus musculus [26] was “inactive” in each case. For the same compound, the T/C was 152% with Mus musculus [20]; 142% with Mus musculus [7]; 180% in the test with Mus musculus [21]; 153% in the test on Mus musculus [17]; “Toxic” in the test with Mus musculus [8]; -27% in the test with Mus musculus [22]. Further, the T/C result with Mus musculus [10] is “Toxic”; in the test on Mus musculus [11], 153%; in the test on Homo sapiens [23] it was -100%; with Homo sapiens [24], 55%; in the test with Mus musculus [13], 136%; with Mus musculus [15] it was “Toxic”. For the same compound, the T/C in the test on Mus musculus [25] is 48%. The Weight change in the test with Mus musculus [9] is given as -2.1 g; with Mus musculus [14] it was -3 g; with Mus musculus [16] it was -1.1 g; in the test with Mus musculus [18] it was -5.6 g.
In the case of `CC1Cc2ccccc2-c2c(COC(=O)NC3CCCCC3)c(COC(=O)NC3CCCCC3)cn21` (stereo not drawn), the T/C in the test on Mus musculus [17] is 182%; in the test on Mus musculus [10], “Toxic”; with Mus musculus [11], 178%; with Mus musculus [15], “Toxic”; in the test on Mus musculus [5], 101%. Moreover, the Weight change in the test on Mus musculus [1] was -6.4%; with Mus musculus [14] it was -4.3%; in the test with Mus musculus [18] it was -4.6%.
As to `CNC(=O)OCc1cn2c(c1COC(=O)NC)-c1ccccc1CC2C` (stereo not drawn), the T/C is 138% in the test on Mus musculus [7]; 169% in the test on Mus musculus [17]; “Toxic” in the test on Mus musculus [10]; 153% with Mus musculus [11]; 138% in the test on Mus musculus [13]; “Toxic” with Mus musculus [15]. In the test on Mus musculus [5], the T/C is 79%. For the same compound, the Weight change is on record as -1 g with Mus musculus [9]; -5 g with Mus musculus [1]; -4.4 g with Mus musculus [14]; -0.3 g in the test with Mus musculus [16]; -4.8 g with Mus musculus [18].
